Measured values reported in the NIST ThermoML archive (doi:10.1016/j.jct.2004.09.021).

How the values were obtained:
[1] = refractive index (Na D-line) (dimensionless); xn = mol fraction of the nth substance listed; conditions: 101 kPa, Liquid
[2] = xn = mol fraction of the nth substance listed; conditions: 101 kPa, Liquid

COc1ccccc1 [anisole] + CCCCCC
Conditions	mass density, 293.15 K [kg/m3]	mass density, 298.15 K [kg/m3]	mass density, 303.15 K [kg/m3]	refractive index, 293.15 K	refractive index, 298.15 K	refractive index, 303.15 K	viscosity, 293.15 K [mPa·s]	viscosity, 298.15 K [mPa·s]	viscosity, 303.15 K [mPa·s]
[1], x1 = 0.095	–	–	–	1.3873	1.3844	1.3819	–	–	–
[1], x1 = 0.193	–	–	–	1.399	1.3952	1.3931	–	–	–
[1], x1 = 0.288	–	–	–	1.4109	1.4081	1.4061	–	–	–
[1], x1 = 0.391	–	–	–	1.4243	1.4217	1.4197	–	–	–
[1], x1 = 0.5121	–	–	–	1.4408	1.4382	1.4365	–	–	–
[1], x1 = 0.5942	–	–	–	1.4525	1.45	1.4483	–	–	–
[1], x1 = 0.678	–	–	–	1.4651	1.4626	1.4609	–	–	–
[1], x1 = 0.779	–	–	–	1.4807	1.4783	1.4767	–	–	–
[1], x1 = 0.881	–	–	–	1.497	1.4946	1.4931	–	–	–
[1], x1 = 1	–	–	–	1.5161	1.5141	1.5129	–	–	–
[2], x1 = 0.0993	688.1	683.56	678.98	–	–	–	0.3336	0.3159	0.305
[2], x1 = 0.1959	716.85	712.32	707.69	–	–	–	0.3594	0.3451	0.3257
[2], x1 = 0.3008	749.04	744.42	739.83	–	–	–	0.3971	0.3776	0.3565
[2], x1 = 0.3998	780.42	775.78	771.15	–	–	–	0.4376	0.4157	0.396
[2], x1 = 0.5045	814.71	810.08	805.39	–	–	–	0.4958	0.4701	0.4451
[2], x1 = 0.5936	844.84	840.19	835.52	–	–	–	0.5596	0.529	0.5002
[2], x1 = 0.6834	876.15	871.52	866.76	–	–	–	0.6392	0.6028	0.5681
[2], x1 = 0.7909	914.94	910.25	905.45	–	–	–	0.756	0.71	0.6685
[2], x1 = 0.8975	954.65	949.92	945.31	–	–	–	0.9044	0.8483	0.7899
[2], x1 = 1	993.81	989.15	984.42	–	–	–	1.085	1.017	0.9285

COc1ccccc1 [anisole] + CCCCCCC
Conditions	mass density, 293.15 K [kg/m3]	mass density, 298.15 K [kg/m3]	mass density, 303.15 K [kg/m3]	refractive index, 293.15 K	refractive index, 298.15 K	refractive index, 303.15 K	viscosity, 293.15 K [mPa·s]	viscosity, 298.15 K [mPa·s]	viscosity, 303.15 K [mPa·s]
[1], x1 = 0.1007	–	–	–	1.3975	1.3954	1.3924	–	–	–
[1], x1 = 0.21	–	–	–	1.4087	1.4064	1.4036	–	–	–
[1], x1 = 0.31	–	–	–	1.4189	1.4167	1.414	–	–	–
[1], x1 = 0.405	–	–	–	1.4294	1.4272	1.4248	–	–	–
[1], x1 = 0.4985	–	–	–	1.4407	1.4385	1.4362	–	–	–
[1], x1 = 0.583	–	–	–	1.4516	1.4495	1.4474	–	–	–
[1], x1 = 0.6989	–	–	–	1.4683	1.466	1.464	–	–	–
[1], x1 = 0.792	–	–	–	1.4826	1.4802	1.4782	–	–	–
[1], x1 = 0.8941	–	–	–	1.499	1.4966	1.4947	–	–	–
[1], x1 = 1	–	–	–	1.5161	1.5141	1.5129	–	–	–
[2], x1 = 0.1002	707.25	702.96	698.59	–	–	–	0.4315	0.4121	0.3918
[2], x1 = 0.2002	731.96	727.61	723.18	–	–	–	0.4541	0.434	0.4135
[2], x1 = 0.2987	757.78	753.37	748.88	–	–	–	0.4775	0.4581	0.4356
[2], x1 = 0.3994	785.83	781.36	776.8	–	–	–	0.5184	0.4896	0.4639
[2], x1 = 0.4996	815.43	810.9	806.29	–	–	–	0.5675	0.5347	0.5064
[2], x1 = 0.5958	845.62	841.04	836.39	–	–	–	0.6285	0.5911	0.5603
[2], x1 = 0.6993	880.28	875.65	870.94	–	–	–	0.7129	0.6692	0.6322
[2], x1 = 0.7981	915.67	911.07	906.4	–	–	–	0.8105	0.7613	0.7161
[2], x1 = 0.8991	953.76	949.15	944.46	–	–	–	0.9337	0.8767	0.8197
[2], x1 = 1	993.81	989.15	984.42	–	–	–	1.085	1.017	0.9285
